Experimental data from ChEMBL document CHEMBL1146765, “Synthesis and biological activity of some structural modifications of pancratistatin” (2004).

Key:
MCF7 = experiment: Tested for growth inhibition activity against breast MCF-7 human cancer cell; format: functional
DU-145 = experiment: Tested for growth inhibition activity against prostate DU-145 human cancer cell; format: functional
NCI-H460 = experiment: Tested for growth inhibition activity against lung NCI-H460 human cancer cell; format: functional
P388 = experiment: Tested for growth inhibition activity against murine P388 lymphocytic leukemia; format: functional, Mus musculus
KM-20L2 = experiment: Tested for growth inhibition activity against colon KM20L2 human cancer cell; format: functional
SF-268 = experiment: Tested for growth inhibition activity against CNS SF-268 human cancer cell; format: functional
BXPC-3 = experiment: Tested for growth inhibition activity against pancreas BXPC-3 human cancer cell; format: functional

COc1ccc2c(c1)[C@@H]1[C@@H](NC2=O)[C@H](OC(C)=O)[C@H](OC(C)=O)[C@@H](OC(C)=O)[C@@H]1OC(C)=O
Growth-inhibitory concentration (MCF7): 4.6 µg/mL | Growth-inhibitory concentration (DU-145): 6.7 µg/mL | Growth-inhibitory concentration (NCI-H460): >10 µg/mL | Growth-inhibitory concentration (P388): 2.1 µg/mL | Growth inhibitory concentration (KM-20L2): >10 µg/mL | Growth-inhibitory concentration (SF-268): >10 µg/mL | Growth-inhibitory concentration (BXPC-3): >10 µg/mL

O=C1N[C@@H]2C(=C[C@H](O)[C@@H](O)[C@H]2O)c2cc3c(c(O)c21)OCO3 [NARCICLASINE]
Growth-inhibitory concentration (MCF7): 0.019 µg/mL | Growth-inhibitory concentration (DU-145): 0.011 µg/mL | Growth-inhibitory concentration (NCI-H460): 0.032 µg/mL | Growth-inhibitory concentration (P388): 0.0012 µg/mL | Growth inhibitory concentration (KM-20L2): 0.021 µg/mL | Growth-inhibitory concentration (SF-268): 0.021 µg/mL | Growth-inhibitory concentration (BXPC-3): 0.026 µg/mL

COC(=O)N[C@H]1[C@H](OC(C)=O)[C@H](OC(C)=O)[C@@H](OC(C)=O)[C@H](OC(C)=O)[C@@H]1c1cccc(OC)c1
Growth-inhibitory concentration (MCF7): >10 µg/mL | Growth-inhibitory concentration (DU-145): >10 µg/mL | Growth-inhibitory concentration (NCI-H460): >10 µg/mL | Growth-inhibitory concentration (P388): 19.3 µg/mL | Growth inhibitory concentration (KM-20L2): >10 µg/mL | Growth-inhibitory concentration (SF-268): >10 µg/mL | Growth-inhibitory concentration (BXPC-3): >10 µg/mL

CC(=O)O[C@H]1[C@@H]2NC(=O)c3cc4c(cc3[C@H]2CC[C@H]1OC(C)=O)OCO4
Growth-inhibitory concentration (MCF7): >10 µg/mL | Growth-inhibitory concentration (DU-145): >10 µg/mL | Growth-inhibitory concentration (NCI-H460): >10 µg/mL | Growth-inhibitory concentration (P388): 1.1 µg/mL | Growth inhibitory concentration (KM-20L2): >10 µg/mL | Growth-inhibitory concentration (SF-268): >10 µg/mL | Growth-inhibitory concentration (BXPC-3): >10 µg/mL

O=C1N[C@H]2[C@H](O)[C@H](O)CC[C@@H]2c2cc3c(cc21)OCO3
Growth-inhibitory concentration (MCF7): >10 µg/mL | Growth-inhibitory concentration (DU-145): >10 µg/mL | Growth-inhibitory concentration (NCI-H460): >10 µg/mL | Growth-inhibitory concentration (P388): 1.39 µg/mL | Growth inhibitory concentration (KM-20L2): >10 µg/mL | Growth-inhibitory concentration (SF-268): >10 µg/mL | Growth-inhibitory concentration (BXPC-3): >10 µg/mL

O=C1N[C@H]2[C@H](O)[C@H](O)[C@@H](O)[C@H](O)[C@@H]2c2cc3c(c(O)c21)OCO3 [PANCRATISTATIN]
Growth-inhibitory concentration (MCF7): 0.032 µg/mL | Growth-inhibitory concentration (DU-145): 0.016 µg/mL | Growth-inhibitory concentration (NCI-H460): 0.048 µg/mL | Growth-inhibitory concentration (P388): 0.039 µg/mL | Growth inhibitory concentration (KM-20L2): 0.062 µg/mL | Growth-inhibitory concentration (SF-268): 0.017 µg/mL | Growth-inhibitory concentration (BXPC-3): 0.028 µg/mL

COc1ccc2c(c1)[C@H]1[C@@H](O)[C@H](O)[C@@H](O)[C@@H](O)[C@@H]1NC2=O
Growth-inhibitory concentration (MCF7): 4.4 µg/mL | Growth-inhibitory concentration (DU-145): 2.6 µg/mL | Growth-inhibitory concentration (NCI-H460): 2.8 µg/mL | Growth-inhibitory concentration (P388): 4.3 µg/mL | Growth inhibitory concentration (KM-20L2): 3.6 µg/mL | Growth-inhibitory concentration (SF-268): 3.3 µg/mL | Growth-inhibitory concentration (BXPC-3): 4.9 µg/mL

O=C1N[C@H]2[C@H](O)[C@H](O)[C@@H](O)[C@H](O)[C@@H]2c2cc3c(cc21)OCO3
Growth-inhibitory concentration (NCI-H460): 0.29 µg/mL | Growth-inhibitory concentration (P388): 0.44 µg/mL | Growth inhibitory concentration (KM-20L2): 0.22 µg/mL
